In brackets after ≈: the same amount, converted by molar mass. Activity calls are given as the source filed them. The rule behind the calls is not given here.
Key:
[1] = target: T1, CYP2C8 (Homo sapiens, UniProt P10632); assay: Inhibition of CYP2C8 in human liver microsomes using amodiaquine as substrate at 10 uM; assay type: ADME; conditions: probe amodiaquine
T1 sequence (P10632 whole entry): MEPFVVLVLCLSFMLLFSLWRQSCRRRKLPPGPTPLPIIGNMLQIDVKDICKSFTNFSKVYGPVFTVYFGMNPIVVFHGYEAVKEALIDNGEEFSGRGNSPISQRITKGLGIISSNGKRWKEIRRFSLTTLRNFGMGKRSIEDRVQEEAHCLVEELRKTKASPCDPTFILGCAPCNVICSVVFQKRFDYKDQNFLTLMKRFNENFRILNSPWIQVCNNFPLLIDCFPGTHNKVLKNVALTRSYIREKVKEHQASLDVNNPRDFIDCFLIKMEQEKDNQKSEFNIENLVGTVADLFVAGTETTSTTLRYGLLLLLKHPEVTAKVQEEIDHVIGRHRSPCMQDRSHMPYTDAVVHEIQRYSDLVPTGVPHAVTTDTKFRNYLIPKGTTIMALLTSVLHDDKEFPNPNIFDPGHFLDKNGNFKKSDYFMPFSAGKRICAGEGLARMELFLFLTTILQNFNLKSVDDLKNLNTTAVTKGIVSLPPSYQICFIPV

[2] = Cytotoxicity against paclitaxel resistant human A-375/TxR cells measured after 72 hrs […]; assay type: functional, cell-based; conditions: A375/TxR
[3] = Aqueous solubility of compound in pH 7.4 PBS buffer; assay type: physicochemical
[4] = test system: M14; assay: Cytotoxicity against paclitaxel resistant human M14 cells measured after 72 hrs […]; assay type: functional, cell-based; conditions: M14, 72 h
[5] = target: CYP2C9 (Homo sapiens, UniProt P11712); assay: Inhibition of CYP2C9 in human liver microsomes using diclofenac as substrate at 10 uM; assay type: ADME; conditions: probe diclofenac
CYP2C9, sequence (P11712 whole entry): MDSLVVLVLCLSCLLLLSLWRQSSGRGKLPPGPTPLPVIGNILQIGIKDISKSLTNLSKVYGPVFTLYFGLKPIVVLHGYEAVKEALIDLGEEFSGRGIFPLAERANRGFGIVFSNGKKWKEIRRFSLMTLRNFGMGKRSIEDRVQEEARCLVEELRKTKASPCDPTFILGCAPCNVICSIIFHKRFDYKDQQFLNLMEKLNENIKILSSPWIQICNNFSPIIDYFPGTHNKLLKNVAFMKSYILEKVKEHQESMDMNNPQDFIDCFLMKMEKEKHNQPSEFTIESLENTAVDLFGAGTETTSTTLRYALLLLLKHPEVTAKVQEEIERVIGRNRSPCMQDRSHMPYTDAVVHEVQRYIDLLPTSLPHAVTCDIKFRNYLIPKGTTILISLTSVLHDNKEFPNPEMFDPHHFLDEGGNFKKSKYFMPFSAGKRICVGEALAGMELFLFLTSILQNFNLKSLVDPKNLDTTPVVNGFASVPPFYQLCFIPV

[6] = test system: A375/TxR; assay: Antimetastatic activity against human A375/TxR cells xenografted in SCID mouse assessed as metastatic in lungs; assay type: functional
[7] = test system: A375/TxR; assay: Antimetastatic activity against human A375/TxR cells xenografted in SCID mouse assessed as metastatic in liver at 20 mg/kg, ip; assay type: functional, organism-based
[8] = Metabolic stability in mouse liver microsomes assessed as half life in presence of NADPH regenerating system by UPLC-MS analysis; assay type: ADME, Microsome; conditions: microsomes
[9] = test system: CYP3A; assay: Inhibition of CYP3A in human liver microsomes using testosterone as substrate at 10 uM; assay type: ADME; conditions: probe testosterone
[10] = Induction of apoptosis in human A375/TxR cells assessed as apoptotic cells at 5 nM measured for 24 hrs by annexin VFITC /PI staining based analysis (reference value: […]); assay type: functional
[11] = Apparent volume of distribution during terminal phase in NSG mouse at 10 mg/kg, ip; assay type: ADME, organism-based; conditions: in vivo, read-out: Vz/F
[12] = test system: A375/TxR; assay: Antitumor activity against human A375/TxR cells xenografted in SCID mouse assessed as tumor necrosis at 10 to 20 mg/kg, ip by H and E staining based analysis; assay type: functional, organism-based; conditions: dose 10-20 mg/kg
[13] = species on record: Sus scrofa; assay: Inhibition of porcine brain tubulin polymerization assessed as inhibition of microtubule polymerization at 10 uM measured for 1 hrs by microplate reader method
[14] = Induction of apoptosis in human A375/TxR cells assessed as apoptotic cells at 2.5 nM measured for 24 hrs by annexin VFITC /PI staining based analysis (reference value: […]); assay type: functional
[15] = test system: M14; assay: Antiproliferative activity against human M14 cells assessed as cell growth inhibition incubated for 72 hrs by MTS assay; assay type: functional, cell-based; conditions: M14, 72 h
[16] = test system: M14; assay: Cytotoxicity against human M14 cells measured after 72 hrs […]; assay type: functional, cell-based; conditions: M14, 72 h
[17] = target: CYP2C19 (Homo sapiens, UniProt P33261); assay: Inhibition of CYP2C19 in human liver microsomes using omeprazole as substrate at 10 uM; assay type: ADME; conditions: probe omeprazole
CYP2C19, sequence (P33261 whole entry): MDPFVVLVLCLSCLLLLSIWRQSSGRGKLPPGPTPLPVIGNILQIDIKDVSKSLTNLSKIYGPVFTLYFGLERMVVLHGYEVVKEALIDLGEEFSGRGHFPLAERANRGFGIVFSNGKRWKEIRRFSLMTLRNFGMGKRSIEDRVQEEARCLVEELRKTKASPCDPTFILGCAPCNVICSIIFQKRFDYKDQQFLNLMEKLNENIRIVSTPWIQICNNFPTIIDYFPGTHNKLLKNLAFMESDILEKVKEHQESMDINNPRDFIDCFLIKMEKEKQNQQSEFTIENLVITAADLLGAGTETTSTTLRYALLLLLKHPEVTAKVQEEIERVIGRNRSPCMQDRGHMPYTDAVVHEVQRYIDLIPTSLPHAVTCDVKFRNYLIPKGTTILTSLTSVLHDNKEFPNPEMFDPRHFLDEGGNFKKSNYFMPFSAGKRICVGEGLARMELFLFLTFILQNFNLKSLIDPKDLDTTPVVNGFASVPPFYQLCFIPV

[18] = target: T2, CYP2B6 (Homo sapiens, UniProt P20813); assay: Inhibition of CYP2B6 in human liver microsomes using bupropion as substrate at 10 uM; assay type: ADME; conditions: probe bupropion
T2 sequence (P20813 whole entry): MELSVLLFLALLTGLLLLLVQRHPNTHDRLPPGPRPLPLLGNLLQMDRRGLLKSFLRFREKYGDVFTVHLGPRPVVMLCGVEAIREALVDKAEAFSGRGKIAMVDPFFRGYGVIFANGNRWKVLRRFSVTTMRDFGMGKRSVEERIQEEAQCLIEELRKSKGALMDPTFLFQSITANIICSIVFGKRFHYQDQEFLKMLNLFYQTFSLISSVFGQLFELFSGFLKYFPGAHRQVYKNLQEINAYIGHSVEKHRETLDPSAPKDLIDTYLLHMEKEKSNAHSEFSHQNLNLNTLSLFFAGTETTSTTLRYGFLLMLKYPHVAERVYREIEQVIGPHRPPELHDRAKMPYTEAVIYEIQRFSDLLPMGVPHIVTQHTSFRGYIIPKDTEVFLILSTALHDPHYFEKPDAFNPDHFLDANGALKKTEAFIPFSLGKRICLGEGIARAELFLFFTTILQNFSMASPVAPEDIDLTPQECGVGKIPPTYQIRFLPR

[19] = test system: Salmonella typhimurium; assay: Mutagenicity in Salmonella typhimurium […] by Ames test; assay type: toxicity, organism-based; conditions: salmonella enterica subsp. enterica serovar typhimurium
[20] = Systemic toxicity in human A375/TxR cells xenografted in SCID mouse tumor model assessed as pathological change in liver at 10 to 20 mg/kg, ip by H and E staining based analysis; assay type: organism-based; conditions: in vivo, dose 10-20 mg/kg
[21] = test system: Salmonella typhimurium; assay: Mutagenicity in Salmonella typhimurium TA1535 by Ames test; assay type: toxicity, organism-based; conditions: salmonella enterica subsp. enterica serovar typhimurium
[22] = test system: A-375; assay: Antiproliferative activity against human A-375 cells assessed as cell growth inhibition incubated for 72 hrs by MTS assay; assay type: functional, cell-based; conditions: A-375, 72 h
[23] = test system: A375/TxR; assay: Induction of cell cycle arrest in human A375/TxR cells assessed as decrease in accumulation at G1 phase measured for 24 hrs by PI staining based flow cytometry analysis; assay type: functional
[24] = Clearance in NSG mouse at 10 mg/kg, ip; assay type: ADME, organism-based; conditions: in vivo
[25] = target: CYP2D6 (Homo sapiens, UniProt P10635); assay: Inhibition of CYP2D6 in human liver microsomes using dextromethorphan as substrate at 10 uM; assay type: ADME; conditions: probe dextromethorphan
CYP2D6, sequence (P10635 whole entry): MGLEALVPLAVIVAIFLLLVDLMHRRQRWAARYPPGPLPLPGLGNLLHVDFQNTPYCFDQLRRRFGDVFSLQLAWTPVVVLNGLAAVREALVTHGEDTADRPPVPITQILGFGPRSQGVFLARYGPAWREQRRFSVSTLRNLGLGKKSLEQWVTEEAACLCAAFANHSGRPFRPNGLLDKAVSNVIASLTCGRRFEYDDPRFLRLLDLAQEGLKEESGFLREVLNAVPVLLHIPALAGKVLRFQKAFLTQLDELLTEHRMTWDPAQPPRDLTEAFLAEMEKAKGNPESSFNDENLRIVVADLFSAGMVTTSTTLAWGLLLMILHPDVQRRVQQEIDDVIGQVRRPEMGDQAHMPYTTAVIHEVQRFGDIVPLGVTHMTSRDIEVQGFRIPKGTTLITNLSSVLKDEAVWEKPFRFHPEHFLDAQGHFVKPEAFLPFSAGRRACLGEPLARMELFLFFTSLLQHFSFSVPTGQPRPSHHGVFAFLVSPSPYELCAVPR

[26] = test system: CYP3A; assay: Inhibition of CYP3A in human liver microsomes using midazolam as substrate at 10 uM; assay type: ADME; conditions: probe midazolam
[27] = Antitumor activity against human A375/TxR cells xenografted in SCID mouse assessed as reduction in tumor volume at 20 mg/kg, ip administered 3 times/week for 18 days; assay type: functional; set-up: scale not given: the % may be the effect or the level left; conditions: time 18 day
[28] = Cmax in NSG mouse at 10 mg/kg, ip; assay type: ADME, organism-based; set-up: route intraperitoneal, dose 10 mg/kg; conditions: in vivo
[29] = Systemic toxicity in human A375/TxR cells xenografted in SCID mouse tumor model assessed as pathological change in heart at 10 to 20 mg/kg, ip by H and E staining based analysis; assay type: organism-based; conditions: in vivo, dose 10-20 mg/kg
[30] = Metabolic stability in mouse liver microsomes assessed as intrinsic clearance in presence of NADPH regenerating system by UPLC-MS analysis; assay type: ADME, Microsome; conditions: read-out: CLH
[31] = Anticlonogenic activity against paclitaxel resistant human A-375 cells assessed as inhibition of colony formation at 5 nM treated for 7 days by crystal violet staining based microscopic analysis; assay type: functional, A375/TxR; set-up: scale not given: the % may be the effect or the level left; conditions: time 7 day

With `COc1cc(C(=O)c2nc(-c3ccc(C)c(O)c3)ccc2F)cc(OC)c1OC` the inhibition at 10 µM [1] was 92.5%, the IC50 [2] was 5.3 nM and the solubility [3] was 0.1 µM (≈ 0.0397 µg/mL). The IC50 [4] was 4.9 nM, the inhibition at 10 µM [5] was 54.7% and the Activity [6] was “Dose-Dependent Effect”. The Activity [7] was “inactive”, the t1/2 [8] was > 4 h and the inhibition at 10 µM [9] was 51.8%. The Activity [10] was 45.4%, the Vd/F [11] was 12.3 L/kg and the Activity [12] was “Active”. For the same molecule, the inhibition [13] was “Active”, the Activity [14] was 14.5% and the IC50 [15] was 1.9 nM. It also gave an IC50 [16] of 2.8 nM, an inhibition at 10 µM [17] of 49% and an inhibition at 10 µM [18] of 12%. For the same molecule, the Activity [19] was “Non-Toxic”, the Activity [20] was “Non-Toxic” and the Activity [21] was “Non-Toxic”. The IC50 [22] was 1.8 nM, the Activity [23] was “Dose-Dependent Effect” and the CL/F [24] was 34.1 mL/min/kg. For the same molecule, the inhibition at 10 µM [25] was 11.9%, the inhibition at 10 µM [26] was 34.7% and the Activity [27] was 72.9%. The Cmax [28] was 6210 ng/mL, the Activity [29] was “Non-Toxic” and the CLint scaled [30] was 4.6 mL/min/kg. The Activity [31] was 95%.

From ChEMBL document CHEMBL5029155, “Design, Synthesis, and Biological Evaluation of Stable Colchicine-Binding Site Tubulin Inhibitors 6-Aryl-2-benzoyl-pyridines as Potential Anticancer Agents” (J Med Chem, 2021)
